Legend:
[1] = target: Sodium-dependent noradrenaline transporter (Homo sapiens, UniProt P23975); test: DRUGMATRIX: Norepinephrine Transporter radioligand binding (ligand: [125I] RTI-55); format: cell membranes, MDCK, Membrane; details: mdck; Not Active = under 50% inhibition at 10 µM
[2] = target: Aldo-keto reductase family 1 member B1 (Rattus norvegicus, UniProt P07943); format: tissue-based, Lens of camera-type eye;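 further: inhibition of aldose reductase enzyme activity, measured with DL-glyceraldehyde as the substrate; in other assays of this panel Not Active means under 50% inhibition at 10 µM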
[3] = DRUGMATRIX: ATPase, Na+/K+ enzyme inhibition (substrate: ATP); format: tissue-based, Sus scrofa, Heart; details: Not Active = under 50% inhibition at 10 µM
[4] = target: T1, Nitric oxide synthase, inducible (Mus musculus, UniProt P29477); parameters: species or system Escherichia coli;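 further: inhibition of iNOS enzyme activity measured with L-arginine as substrate; in other assays of this panel Not Active means under 50% inhibition at 10 µM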
T1 sequence (P29477 whole entry): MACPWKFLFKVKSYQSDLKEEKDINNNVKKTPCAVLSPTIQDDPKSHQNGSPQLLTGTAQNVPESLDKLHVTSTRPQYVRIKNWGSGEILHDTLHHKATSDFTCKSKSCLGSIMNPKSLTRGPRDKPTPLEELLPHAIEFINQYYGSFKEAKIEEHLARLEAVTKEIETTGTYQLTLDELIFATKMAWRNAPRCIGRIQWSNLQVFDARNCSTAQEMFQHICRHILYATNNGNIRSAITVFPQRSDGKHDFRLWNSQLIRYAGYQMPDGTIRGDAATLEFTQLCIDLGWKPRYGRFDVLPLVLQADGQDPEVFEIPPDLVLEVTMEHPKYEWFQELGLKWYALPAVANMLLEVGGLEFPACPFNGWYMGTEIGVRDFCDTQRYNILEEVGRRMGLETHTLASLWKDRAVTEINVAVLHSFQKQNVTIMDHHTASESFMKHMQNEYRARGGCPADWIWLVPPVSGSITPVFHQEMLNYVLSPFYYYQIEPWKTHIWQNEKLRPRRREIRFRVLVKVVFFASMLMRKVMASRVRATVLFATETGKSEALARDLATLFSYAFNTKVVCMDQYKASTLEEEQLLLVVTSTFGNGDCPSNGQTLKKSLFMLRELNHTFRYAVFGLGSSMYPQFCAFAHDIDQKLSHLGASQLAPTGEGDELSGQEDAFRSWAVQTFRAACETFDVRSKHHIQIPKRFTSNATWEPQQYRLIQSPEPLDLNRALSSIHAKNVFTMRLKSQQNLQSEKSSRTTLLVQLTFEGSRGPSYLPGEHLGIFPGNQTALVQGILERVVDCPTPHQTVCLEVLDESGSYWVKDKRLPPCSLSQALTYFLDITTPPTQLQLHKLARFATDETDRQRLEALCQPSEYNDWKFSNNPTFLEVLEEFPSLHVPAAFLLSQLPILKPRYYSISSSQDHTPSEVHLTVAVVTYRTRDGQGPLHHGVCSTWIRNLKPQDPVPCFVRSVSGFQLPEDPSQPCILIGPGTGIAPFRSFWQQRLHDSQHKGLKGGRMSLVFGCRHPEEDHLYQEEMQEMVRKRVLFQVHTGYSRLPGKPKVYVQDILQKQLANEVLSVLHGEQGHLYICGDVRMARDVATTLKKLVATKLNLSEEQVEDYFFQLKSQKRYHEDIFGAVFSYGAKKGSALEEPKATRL

[5] = target: T2, Adenosine receptor A3 (Homo sapiens, UniProt P0DMS8); format: cell membranes, CHO-K1, Membrane; details: cho-k1;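 further: radioligand binding assay with AB-MECA serving as the labeled ligand; in other assays of this panel Not Active means under 50% inhibition at 10 µM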
T2 sequence (P0DMS8 whole entry): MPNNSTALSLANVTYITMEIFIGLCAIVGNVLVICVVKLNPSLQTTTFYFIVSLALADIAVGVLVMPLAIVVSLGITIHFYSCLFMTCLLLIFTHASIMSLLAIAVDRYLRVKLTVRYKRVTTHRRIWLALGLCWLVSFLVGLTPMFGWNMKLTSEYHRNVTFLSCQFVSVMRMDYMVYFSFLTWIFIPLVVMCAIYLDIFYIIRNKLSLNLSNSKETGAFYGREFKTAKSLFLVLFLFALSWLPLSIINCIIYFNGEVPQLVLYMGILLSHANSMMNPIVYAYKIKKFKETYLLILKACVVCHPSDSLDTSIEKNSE

[6] = target: Cytochrome P450 2D6 (Homo sapiens, UniProt P10635); details: bti-tn-5b1-4; further: in other assays of this panel Not Active means under 50% inhibition at 10 µM
Chain of Cytochrome P450 2D6 (P10635 whole entry): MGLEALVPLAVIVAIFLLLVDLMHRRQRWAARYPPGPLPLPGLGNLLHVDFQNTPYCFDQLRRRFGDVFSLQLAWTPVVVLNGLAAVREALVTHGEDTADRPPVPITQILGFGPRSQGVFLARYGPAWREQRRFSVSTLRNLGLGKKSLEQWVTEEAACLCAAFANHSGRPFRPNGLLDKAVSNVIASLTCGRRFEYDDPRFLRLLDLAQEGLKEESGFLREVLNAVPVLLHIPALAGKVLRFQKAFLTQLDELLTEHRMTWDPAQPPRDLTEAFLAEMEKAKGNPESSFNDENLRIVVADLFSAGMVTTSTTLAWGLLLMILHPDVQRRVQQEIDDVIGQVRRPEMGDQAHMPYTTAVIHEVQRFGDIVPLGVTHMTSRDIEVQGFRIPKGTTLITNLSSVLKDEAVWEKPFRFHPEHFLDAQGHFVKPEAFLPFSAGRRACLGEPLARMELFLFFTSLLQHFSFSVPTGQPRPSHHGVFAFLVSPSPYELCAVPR

Chain of Sodium-dependent noradrenaline transporter (P23975 whole entry): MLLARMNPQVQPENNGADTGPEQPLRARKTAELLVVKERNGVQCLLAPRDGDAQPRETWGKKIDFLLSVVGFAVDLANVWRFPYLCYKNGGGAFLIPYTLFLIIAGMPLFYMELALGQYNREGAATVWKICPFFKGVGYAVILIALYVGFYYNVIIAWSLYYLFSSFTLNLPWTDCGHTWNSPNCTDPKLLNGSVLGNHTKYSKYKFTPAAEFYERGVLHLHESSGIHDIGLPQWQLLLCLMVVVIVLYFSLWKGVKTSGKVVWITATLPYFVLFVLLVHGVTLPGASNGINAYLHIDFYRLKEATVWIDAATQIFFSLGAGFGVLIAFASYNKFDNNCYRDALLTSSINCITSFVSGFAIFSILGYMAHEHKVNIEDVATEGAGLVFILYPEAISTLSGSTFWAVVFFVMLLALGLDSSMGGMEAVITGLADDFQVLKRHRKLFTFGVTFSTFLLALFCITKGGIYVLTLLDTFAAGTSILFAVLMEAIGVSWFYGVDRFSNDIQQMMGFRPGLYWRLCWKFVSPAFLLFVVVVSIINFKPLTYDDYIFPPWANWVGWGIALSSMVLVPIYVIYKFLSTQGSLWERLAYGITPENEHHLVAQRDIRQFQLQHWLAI

Oc1cccc(O)c1O [PYROGALLOL]
IC50 [1]: Not Active | IC50 [2]: Not Active | IC50 [3]: Not Active | Ki [3]: Not Active | IC50 [4]: Not Active | IC50 [5]: Not Active | IC50 [6]: Not Active | Ki [6]: Not Active

AURANOFIN
IC50 [1]: Not Active | Ki [1]: Not Active | IC50 [2]: Not Active | Ki [2]: Not Active | IC50 [3]: Not Active | Ki [3]: Not Active | IC50 [4]: Not Active | Ki [4]: Not Active | IC50 ([5]; read-out: IC50): 1690 nM | Ki ([5]; read-out: Ki): 954 nM | IC50 [6]: Not Active | Ki [6]: Not Active

GADOPENTETATE DIMEGLUMINE
IC50 [1]: Not Active | Ki [1]: Not Active | IC50 [2]: Not Active | Ki [2]: Not Active | IC50 [3]: Not Active | Ki [3]: Not Active | IC50 [4]: Not Active | Ki [4]: Not Active | IC50 [5]: Not Active | Ki [5]: Not Active | IC50 [6]: Not Active | Ki [6]: Not Active

GENTAMICIN
IC50 [1]: Not Active | Ki [1]: Not Active | IC50 [2]: Not Active | Ki [2]: Not Active | IC50 [3]: Not Active | Ki [3]: Not Active | IC50 [4]: Not Active | Ki [4]: Not Active | IC50 [5]: Not Active | Ki [5]: Not Active | IC50 [6]: Not Active | Ki [6]: Not Active

GRAMICIDIN
IC50 [1]: Not Active | Ki [1]: Not Active | IC50 [2]: Not Active | Ki [2]: Not Active | IC50 ([3]; read-out: IC50): 5140 nM | IC50 [4]: Not Active | Ki [4]: Not Active | IC50 [5]: Not Active | Ki [5]: Not Active | IC50 [6]: Not Active | Ki [6]: Not Active

NYSTATIN
IC50 [1]: Not Active | Ki [1]: Not Active | IC50 [2]: Not Active | Ki [2]: Not Active | IC50 [3]: Not Active | Ki [3]: Not Active | IC50 [4]: Not Active | Ki [4]: Not Active | IC50 [5]: Not Active | Ki [5]: Not Active | IC50 [6]: Not Active | Ki [6]: Not Active
